Assay results as given in patent US20210309669A1, “Heterocyclic Spiro Compounds As MAGL Inhibitors” (Pfizer Inc., priority 2018, published 2021).
Read-outs that look alike come from different tables or passages of the source.

Key:
[1] = Dynamic vapor sorption (hygroscopicity); type: physicochemical; details: 25° C.
Experimental: (§1) An automated vapor sorption analyzer (VTI SGA-CX; VTI scientific) was used to measure the hygroscopicity of the anhydrate of Form I of the invention. The microbalance was calibrated using a 100 mg standard weight. The relative humidity sensor was calibrated at 5.0, 11.3, 32.8, 52.8, 75.3, and 84.3% RH (25° C.) using saturated salt solutions, as well as 80% RH (25° C.) using polyvinylpyrrolidone. Approximately 8-10 mg of the powder sample was placed in the platinum sample pan and dried at 3% relative humidity (RH) at 25° C. with a heating rate of 1° C. per minute. The attainment of equilibrium was assumed when the weight change of the sample was <0.001 wt % in 5 min or by a maximum equilibration time of 120 minutes. […] Again, the attainment of equilibrium was assumed when the weight change of the sample was <0.001 wt % in 5 min or by a maximum equilibration time of 120 minutes. The weight gain at the end of the sorption cycle (90% RH) was calculated on the basis of the dry weight.
as §1, with “Moisture/Water sorption and desorption studies were conducted on automated” for “An automated”, “analyzer (TA instruments Q5000 SA).” for “analyzer (VTI SGA-CX; VTI scientific) was used to measure the hygroscopicity of the anhydrate of Form I of the invention.”, “salt solutions.” for “salt solutions, as well as 80% RH (25° C.) using polyvinylpyrrolidone.”, “Approximately 10-20” for “Approximately 8-10”, “at ≤3%” for “at 3%”, “C.” for “C. with a heating rate of 1° C. per minute.”

human recombinant FAAH = biological target: T1, human recombinant FAAH (Homo sapiens, UniProt O00519); test: FAAH inhibition enzymatic assay (Arachidonoyl-AMC substrate); type: biochemical; details: 30 minute incubation; geometric mean; read-out: FAAH (T = 30 min) IC50
T1 construct: purchased Cayman 10010183
T1 sequence (O00519 1-579): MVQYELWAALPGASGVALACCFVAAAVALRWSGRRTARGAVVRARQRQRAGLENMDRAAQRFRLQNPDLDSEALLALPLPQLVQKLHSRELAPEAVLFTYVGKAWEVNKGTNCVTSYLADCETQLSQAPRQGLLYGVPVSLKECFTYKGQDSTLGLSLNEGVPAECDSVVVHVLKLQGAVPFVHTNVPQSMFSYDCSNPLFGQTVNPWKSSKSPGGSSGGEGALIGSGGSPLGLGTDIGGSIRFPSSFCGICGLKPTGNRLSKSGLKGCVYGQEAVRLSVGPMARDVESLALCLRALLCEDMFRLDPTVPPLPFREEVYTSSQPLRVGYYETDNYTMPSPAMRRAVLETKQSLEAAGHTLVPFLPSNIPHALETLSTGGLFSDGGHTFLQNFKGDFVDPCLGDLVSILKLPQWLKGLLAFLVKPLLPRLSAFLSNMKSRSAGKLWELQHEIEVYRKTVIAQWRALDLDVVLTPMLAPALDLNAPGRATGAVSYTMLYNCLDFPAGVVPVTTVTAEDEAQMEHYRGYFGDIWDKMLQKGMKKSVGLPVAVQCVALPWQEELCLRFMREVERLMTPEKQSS
Experimental: Assessment of FAAH inhibition utilizes human recombinant FAAH and the fluorescent substrate, Arachidonoyl-AMC. 400 nL of a test compound at decreasing concentrations was spotted into a 384-well back plate (PerkinElmer, 6007279) using a Labcyte Echo, followed by addition of 10 μl of FAAH enzyme (Cayman 10010183) in assay buffer (50 mM Tris, pH 9.0, 1 mM EDTA, i.e. ethylenediaminetetraacetic acid). After a 30 minute incubation at room temperature, 10 μL of Arachidonyl-AMCA was added in assay buffer with 16% DMSO. […] The reaction was allowed to progress for 60 minutes, after which the plate was read on a Molecular Devices FlexStation reader at an Ex/Em of 355/460. Percent inhibitions were calculated based on controls wells containing either no compound (0% inhibition) or a control compound (e.g., an FAAH inhibitor whose activity is known or was previously reported in the literature, such as one with about 100% inhibition). IC50 values were generated based on a four parameter fit model using ABASE software from IDBS.

[2] = biological target: T2, human recombinant Monoacylglycerol Lipase (Homo sapiens, UniProt Q99685); test: MAGL inhibition enzymatic assay (7-HCA fluorogenic substrate); type: biochemical; details: geometric mean
T2 sequence (Q99685 1-303): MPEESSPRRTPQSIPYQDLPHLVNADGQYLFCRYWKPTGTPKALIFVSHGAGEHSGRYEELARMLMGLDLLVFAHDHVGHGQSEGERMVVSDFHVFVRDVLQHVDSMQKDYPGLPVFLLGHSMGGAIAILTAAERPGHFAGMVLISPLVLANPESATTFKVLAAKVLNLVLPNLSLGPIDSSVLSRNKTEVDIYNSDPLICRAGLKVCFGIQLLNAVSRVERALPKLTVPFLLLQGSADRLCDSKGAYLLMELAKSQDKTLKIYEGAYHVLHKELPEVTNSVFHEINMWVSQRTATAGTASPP
Experimental: (§2) Assessment of MAGL inhibition utilizes human recombinant Monoacylglycerol Lipase and the fluorogenic substrate 7-hydroxycoumarinyl arachidonate (7-HCA, Biomol ST-502). 400 nL of a test compound at decreasing concentration (ranging from 150 μM down to 1.5 nM) was spotted into a 384-well back plate (PerkinElmer, 6007279) using a Labcyte Echo, followed by addition of 10 μL of MAGL enzyme in assay buffer (50 mM HEPES, pH 7.4, 100 mM NaCl, 5 mM MgCl2, 0.1% Triton X-100 and 25% glycerin). An equal volume of 7-HCA in assay buffer with 10% DMSO was added either immediately (T=0 min) or after a 30 minute incubation (T=30 min) to initiate the reaction. The final concentration of MAGL enzyme was […] and 7-HCA substrate was 5 μM. After these dilutions, the final concentration of the test compound ranged from 3 μM to 0.03 nM. The reaction was allowed to progress for 60 minutes, after which the plate was read at an Ex/Em of 340/465. Percent inhibitions were calculated based on control wells containing no compound (0% inhibition) and a control compound (e.g., a MAGL inhibitor whose activity is known or was previously reported in the literature, such as one with about 100% inhibition). IC50 values were generated based on a four parameter fit model using ABASE software from IDBS. See e.g., Wang, Y. et al., “A Fluorescence-Based Assay for Monoacylglycerol Lipase Compatible with Inhibitor Screening,” Assay and Drug Development Technologies, 2008, Vol. 6 (3) pp 387-393 (reporting an assay for measuring MAGL activity).

[3] = biological target: T2, human recombinant Monoacylglycerol Lipase; test: MAGL inactivation (enzyme progress curves, kinact/KI); type: biochemical; details: geometric mean
Experimental: as §2
To measure MAGL inactivation, the same protocol for the (T=0 min) MAGL inhibition IC50 assay was performed with data collected every minute to acquire enzyme progress curves at decreasing concentrations of compound.

[4] = In vitro intrinsic clearance in human liver microsomes (HLM); type: in vitro ADME; details: pH 7.4, 1 μM substrate, NADPH, 37° C., read-out: HLM CLint, app
Experimental: Test Compounds (Example 1-3 and Comparative-Compounds 1-4) were prepared as solutions in DMSO. The final concentration of DMSO in the incubation was <0.1% (v/v). […] (all final concentrations) in a 384-well plate. The reaction mixture was pre-warmed at 37° C. for 10 min prior to initiation of the incubation. The incubation was quenched with acetonitrile containing internal standards at the following time points: 1, 4, 7, 12, 20, 25, 45, and 60 min (individual incubation plates per time point) with a subsequent addition of water. The samples were vortexed followed by centrifugation and the supernatant was analyzed by LC/MS-MS using multiple reaction monitoring. For control experiments, NADPH was omitted from the incubations.
The microsomal t½ (min) was obtained from a log-linear plot of the substrate depletion versus incubation time and was scaled to hepatic intrinsic clearance (CLint,app (μL/min/mg protein) using the following equation: […]

[5] = In vitro intrinsic clearance in human hepatocytes; type: in vitro ADME; details: 1 μM substrate, human hepatocytes 0.5 million viable cells per mL, 37° C.
Experimental: Test Compounds (Example 1-3 and Comparative-Compounds 1-4) were prepared as solutions in DMSO at 3 mM which were then diluted in media containing WEM. The final concentration of DMSO in the incubation was 0.03% (v/v). The in vitro half-life (t½) of each compound was determined in incubations containing substrate (1 μM), human hepatocytes (0.5 million viable cells per mL final concentration) in media containing WEM, 50 mM HEPES buffer (pH 7.4), and 26 mM sodium bicarbonate at 37° C. (all final concentrations) in a 96-well plate. The reaction mixture was pre-warmed at 37° C. for 30 min prior to the initiation of the incubation. The incubation was quenched with acetonitrile containing internal standards at the following time points: 0, 5, 15, 30, 60, 120, and 240 min (individual incubation plates per time point). The samples were vortexed followed by centrifugation. An aliquot of supernatant was transferred to a clean 96-well plate and analyzed by LC/MS-MS using multiple reaction monitoring. For control experiments, hepatocytes were omitted from the incubations.
The hepatocyte t½ (min) was obtained from a log-linear plot of the substrate depletion versus incubation time and was scaled to hepatic intrinsic clearance (CLint,app (μL/min/million cells) using the following equation: […]

[6] = 30 minute incubation before substrate, read-out: MAGL (T = 30 min) IC50
[7] = substrate added immediately (T=0 min), read-out: MAGL (T = 0 min) IC50

| Compound | DVS weight gain ([1]; 0-60% RH) | DVS weight gain ([1]; 60% RH) | DVS weight gain ([1]; 75% RH) | DVS weight gain ([1]; 90% RH) | DVS weight gain ([1]; at up to 90% RH) | IC50 (human recombinant FAAH) [µM] | IC50 [2, 6] [µM] | IC50 [2, 7] [µM] | MAGL kinact/KI [3] | microsomal CLint at 1 μM [4] [µL/min/mg] | HHEPs CLint, app [5] [μL/min/million] |
| --- | --- | --- | --- | --- | --- | --- | --- | --- | --- | --- | --- |
| O=C(OC(C(F)(F)F)C(F)(F)F)N1CCC2(CC1)C[C@@H](NS(=O)(=O)CC1CC1)CO2 [Form I, 1,1,1,3,3,3-Hexafluoropropan-2-yl (3R)-3-{[(cyclopropylmethyl)sulfonyl]amino}-1-oxa-8-azaspiro[4.5]decane-8-carboxylate] | 0-60% RH, 25° C.: <0.1% weight gain | 60% RH, 25° C.: <0.1% weight gain | 75% RH, 25° C.: <0.1% weight gain | 90% RH, 25° C.: <0.1% weight gain | less than 0.1% | – | – | – | – | – | – |
| O=C(OC(C(F)(F)F)C(F)(F)F)N1CCC2(CCC(NS(=O)(=O)CC3CC3)CO2)CC1 (single isomer, unassigned; ent-2) [Example 5, 1,1,1,3,3,3-Hexafluoropropan-2-yl 3-{[(cyclopropylmethyl)sulfonyl]amino}-1-oxa-9-azaspiro[5.5]undecane-9-carboxylate, ENT-2] | – | – | – | – | – | > 30 | 0.0101 | 0.103 | 6930 1/s per M | – | – |
| O=C(OC(C(F)(F)F)C(F)(F)F)N1CCC2(CC1)C[C@@H](NS(=O)(=O)C1CC1)CO2 [Form A, 1,1,1,3,3,3-hexafluoropropan-2-yl(3R)-3-[(cyclopropylsulfonyl)amino]-1-oxa-8-azaspiro[4.5]decane-8-carboxylate] | 0-60% RH, 25° C.: <0.1% weight gain | 60% RH, 25° C.: <0.1% weight gain | 75% RH, 25° C.: <0.1% weight gain | 90% RH, 25° C.: <0.1% weight gain | less than 0.1% | – | – | – | – | – | – |
| O=C(OC(C(F)(F)F)C(F)(F)F)N1CCC2(CCC(NS(=O)(=O)CC3CC3)CO2)CC1 (single isomer, unassigned; ent-1) [Example 4, 1,1,1,3,3,3-Hexafluoropropan-2-yl 3-{[(cyclopropylmethyl)sulfonyl]amino}-1-oxa-9-azaspiro[5.5]undecane-9-carboxylate, ENT-1] | – | – | – | – | – | > 30 | 0.02 | 0.162 | 3110 1/s per M | – | – |
| O=C(OC(C(F)(F)F)C(F)(F)F)N1CCC2(CC1)C[C@@H](NS(=O)(=O)c1ccccc1)CO2 [Comparative-Compound 4, 1,1,1,3,3,3-hexafluoropropan-2-yl (3R)-3-[(phenylsulfonyl)amino]-1-oxa-8-azaspiro[4.5]decane-8-carboxylate] | – | – | – | – | – | – | – | – | – | 30.4 | 27.5 |
